Data as given in ChEMBL document CHEMBL3045829, “Structure- and species-dependent insecticidal effects of neo-clerodane diterpenes” (J Agric Food Chem, 2000).

Key:
[1] = test system: Myzus persicae; assay: Potency index, ratio of antifeedant activity of farnesol to compound against Myzus persicae (green peach aphid) assessed feeding settling inhibition index at 50 ug/cm2; assay type: functional
[2] = test system: Myzus persicae; assay: Antifeedant activity against Myzus persicae (green peach aphid) assessed feeding settling inhibition index at 50 ug/cm2 relative to untreated control; assay type: functional
[3] = test system: Spodoptera littoralis; assay: Nutritional effect in Spodoptera littoralis L6 larvae assessed as food consumption at 20 ug/insect administered through oral cannulation after 72 hr relative to untreated control; assay type: functional
[4] = test system: Spodoptera littoralis; assay: Nutritional effect in Spodoptera littoralis L6 larvae assessed as weight gain at 20 ug/insect administered through oral cannulation after 72 hr relative to untreated control; assay type: functional
[5] = test system: Spodoptera littoralis; assay: Antifeedant activity against Spodoptera littoralis assessed as inhibition of feeding at 50 ug/cm2 by choice feeding assay relative to untreated control; assay type: functional
[6] = test system: Spodoptera littoralis; assay: Antifeedant activity against Spodoptera littoralis assessed as inhibition of feeding by choice feeding assay relative to untreated control; assay type: functional, organism-based
[7] = test system: Leptinotarsa decemlineata; assay: Toxicity against Leptinotarsa decemlineata assessed as insect mortality administered through hemolymph injection after 72 hr; assay type: functional; design: concentration or dose not given beside the values
[8] = test system: Leptinotarsa decemlineata; assay: Antifeedant activity against Leptinotarsa decemlineata assessed as inhibition of feeding by no-choice feeding assay relative to untreated control; assay type: functional, organism-based
[9] = test system: Leptinotarsa decemlineata; assay: Antifeedant activity against Leptinotarsa decemlineata assessed as inhibition of feeding at 50 ug/cm2 by no-choice feeding assay relative to untreated control; assay type: functional
[10] = test system: Leptinotarsa decemlineata; assay: Antifeedant activity against Leptinotarsa decemlineata assessed as inhibition of feeding by choice feeding assay relative to untreated control; assay type: functional, organism-based
[11] = test system: Leptinotarsa decemlineata; assay: Antifeedant activity against Leptinotarsa decemlineata assessed as inhibition of feeding at 50 ug/cm2 by choice feeding assay relative to untreated control; assay type: functional

Compound	fold change (FC) [1]	inhibition at 50 µg/cm2 [2] [%]	Activity [3] [%]	Activity [4] [%]	inhibition at 50 µg/cm2 [5] [%]	EC50 [6] [microg/cm2]	mortality [7] [%]	EC50 [8] [microg/cm2]	inhibition at 50 µg/cm2 [9] [%]	EC50 [10] [microg/cm2]	inhibition at 50 µg/cm2 [11] [%]
C=C1CCC[C@@H]2[C@@](C)(C/C=C3/CC(OC(C)=O)OC3OC(C)=O)[C@H](C)CC[C@@]12C (stereo partly specified)	2	43.1	110.26	110.18	11.2	> 50	25	> 50	28.8	> 50	33.8
C=C1CCC[C@@H]2[C@@](C)(CC(OC(C)=O)/C(=C/COC(C)=O)COC(C)=O)[C@H](C)CC[C@@]12C (stereo partly specified)		19.7	93.02	104.75	18.4	> 50	32	> 50	11.6	> 50	38.5
C=C1CCC[C@@H]2[C@@](C)(CC(O)/C(=C/COC(C)=O)COC(C)=O)[C@H](C)CC[C@@]12C (stereo partly specified)	2	48.2	88.33	106.65	42.5	> 50	26	> 50	22.6	> 50	61.4
C=C1CCC[C@@H]2[C@@](C)(C/C=C(\CC=O)C(C)=O)[C@H](C)CC[C@@]12C	2	45.6	92.7	104.33	14.7	> 50	26	7.7	98.9	12.8	89.9
CC(=O)OC1C/C(=C/C[C@@]2(C)[C@H](C)CC[C@]3(C)[C@@H]2CCC[C@@]32CO2)C(OC(C)=O)O1 (stereo partly specified)			55.54	26.37	73.9		42		73.3		91.2
CC(=O)OC/C=C(\COC(C)=O)C(C[C@@]1(C)[C@H](C)CC[C@]2(C)[C@@H]1CCCC21CO1)OC(C)=O (stereo partly specified)		26.3	39.74	31.03	17.9	> 50	50	> 50	40.7	6.4	96.6
CC(=O)OC/C=C(\COC(C)=O)C(C[C@@]1(C)[C@H](C)CC[C@]2(C)[C@@H]1CCCC2(O)CO)OC(C)=O (stereo partly specified)			38.19	29.72	32.6	> 50	50		86.5		97.1
CC(=O)OC/C=C(\COC(C)=O)[C@@H](C[C@@]1(C)[C@H](C)CC[C@@]2(C)C(C)=CCC[C@H]12)OC(C)=O		33.5	40.02	30.69	28.1	> 50	8	> 50	35.5	> 50	31.4
C=C1CCC[C@@H]2[C@@](C)(C/C=C(/C=O)CC=O)[C@H](C)CC[C@@]12C [E-ISOLINARIDIAL]	2	44.3	95.56	108.22	23.3	> 50	0	8.5	90.7	10.5	90.1
CC(C)=CCC/C(C)=C/CC/C(C)=C/CO [FARNESOL]		90.6									
C[C@@H]1CC[C@@H]2C(C)(C)C[C@]3(C)CC=C[C@]123 [SILPHINENE]							24	2.7		0.27	
